# According to patent US6426355B1, “Heterocyclic carboxamide-containing thiourea inhibitors of herpes viruses containing phenylenediamine group” (American Home Products, priority 1998, dated 2002):
# Columns and labels:
# [1] = test system: HCMV recombinant mutant virus (RV145); assay: HCMV microtiter plate assay (beta-glucuronidase reporter); type: cell-based, Human Cytomegalovirus; conditions: Human betaherpesvirus 5, Fibroblast, read-out: IC50 (ug/ml) HCMV
# Outline: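 Human foreskin fibroblasts were infected with RV145 in the presence of inhibitor. β-glucuronidase under a viral promoter served as the replication marker. At 96 h post-infection, lysates in pH 7.0 phosphate with Triton X-100/sarkosyl were assayed colorimetrically or fluorometrically, and IC50 was estimated from varying inhibitor amounts.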
# HSV-1 = assay: HSV Antiviral (ELISA) assay; type: cell-based; conditions: Human alphaherpesvirus 1, HSV-1 in Vero cells, read-out: IC50 (ug/ml) HSV
# Outline: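 Vero cells in DMEM/2% FBS pretreated with compound 30 min before HSV-1 infection (MOI 0.006), then ~24 h at 37 °C. Viral gD detected by ELISA with β-galactosidase secondary and 4-methylumbelliferyl-galactoside (ex 365/em 450 nm); IC50 from fluorescence versus untreated infected cells.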
# VZV strain Ellen = assay: VZV Antiviral (ELISA) assay; type: cell-based; conditions: for IC50: Human alphaherpesvirus 3, VZV strain Ellen in HFF cells, read-out: IC50 (ug/ml) VZV; for inhibition at 10 µg/mL: Human alphaherpesvirus 3, read-out: % inhibition 10 ug/ml VZV, at 10 ug/ml, VZV strain Ellen in HFF cells
# Outline: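 Antiviral IC50 is derived by comparing fluorescence with and without compound after a three-day culture of VZV-infected plus uninfected foreskin fibroblasts. Replication is quantified by ELISA against glycoprotein II, using a β-galactosidase secondary and methyl umbelliferyl-β-D-galactoside.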
SMILES,IC50 [1] [µg/mL],IC50 (HSV-1) [µg/mL],IC50 (VZV strain Ellen) [µg/mL],inhibition at 10 µg/mL (VZV strain Ellen) [%]
"O=C(Nc1ccc(NC(=S)Nc2ccc(OC(F)(F)F)c(Br)c2)cc1)c1ccco1 [Example 919, Furan-2-carboxylic acid {4-[3-(3-bromo-4-trifluoromethoxy-phenyl)-thioureido]-phenyl}-amide]",0.05,> 10,> 10,
"O=C(Nc1ccc(NC(=S)Nc2cc(Cl)cc(Cl)c2)cc1)c1csnn1 [Example 921, [1,2,3]Thiadiazole-4carboxylic acid {4-[3-(3,5-dichloro-phenyl)-thioureido]-phenyl}-amide]",0.05,8,7,85
"COc1c(Cl)cc(NC(=S)Nc2ccc(NC(=O)c3cccc(F)c3)cc2)cc1Cl [Example 922, N-{4-[3-(3,5-Dichloro-4-methoxy-phenyl)-thioureido]-phenyl}-3-fluoro-benzamide]",0.01,> 10,7,84
"CC(=O)Nc1ccc(NC(=S)Nc2ccc(C)c(Cl)c2)cc1 [Example 939, N-{4-[3-(3-Chloro-4-methyl-phenyl)-thioureido]-phenyl} -acetamide]",0.018,> 10,15,53
"O=C(Nc1ccc(NC(=S)Nc2ccc(C(F)(F)F)c(Cl)c2)cc1)c1csnn1 [Example 960, [1,2,3]Thiadiazole-4-carboxylic acid {4-[3-(3-chloro-4-trifluoromethyl-phenyl)-thioureido]-phenyl}-amide]",0.03,> 10,> 10,58
"O=C(Nc1ccc(NC(=S)Nc2ccc(C(F)(F)F)c(Cl)c2)cc1)c1ccccc1F [Example 961, N-{4-[3-(3-Chloro-4-trifluoromethyl-phenyl)-thioureido]-phenyl} -2-fluoro-benzamide]",0.006,> 10,,20
"O=C(Nc1ccc(NC(=S)Nc2ccc(Cl)c(Cl)c2)cc1)c1csnn1 [Example 964, [1,2,3]Thiadiazole-4-carboxylic acid {4-[3-(3,4-dichloro-phenyl)-thioureido]-phenyl}-amide]",0.03,> 10,> 10,9
"O=C(Nc1ccc(NC(=S)Nc2ccc(Br)c(Cl)c2)cc1)c1ccccc1F [Example 965, N-{4-[3-(4-Bromo-3-chloro-phenyl)-thioureido]-phenyl} -2-fluoro-benzamide]",0.008,> 10,,36
"O=C(Nc1ccc(NC(=S)Nc2ccc(I)c(Cl)c2)cc1)c1ccccc1F [Example 966, N-{4-[3-(3-Chloro-4-iodo-phenyl)-thioureido]-phenyl} -2-fluoro-benzamide]",0.02,> 10,,42
"O=C(Nc1ccc(NC(=S)Nc2ccc(F)c(Cl)c2)cc1)c1ccco1 [Example 969, Furan-2-carboxylic acid {4-[3-(3-chloro-4-fluoro-phenyl)-thioureido]-phenyl}-amide]",0.03,> 10,> 10,40
"O=C(Nc1ccc(NC(=S)Nc2ccc(Br)c(Cl)c2)cc1)c1csnn1 [Example 970, [1,2,3]Thiadiazole-4-carboxylic acid {4-[3-(4-bromo-3-chloro-phenyl)-thioureido]-phenyl}-amide]",0.06,> 10,> 10,16
"O=C(Nc1ccc(NC(=S)Nc2ccc(I)c(Cl)c2)cc1)c1csnn1 [Example 971, [1,2,3]Thiadiazole-4-carboxylic acid {4-[3-(3-chloro-4-iodo-phenyl)-thioureido]-phenyl} -amide]",0.013,> 10,> 10,9
"O=C(Nc1ccc(NC(=S)Nc2ccc(F)c(Cl)c2)cc1)c1ccccc1F [Example 972, N-{4-[3-(3-Chloro-4-fluoro-phenyl)-thioureido]-phenyl} -2-fluoro-benzamide]",0.006,> 10,> 15,95
"O=C(Nc1ccc(NC(=S)Nc2cccc(Cl)c2Cl)cc1)c1csnn1 [Example 979, [1,2,3]Thiadiazole-4-carboxylic acid {4-[3-(2,3-dichloro-phenyl)-thioureido]-phenyl} -amide]",0.19,8,12,88
"CC(=O)Nc1ccc(NC(=S)Nc2cc(Cl)ccc2Cl)cc1 [Example 980, N-{4-[3-(2,5-Dichloro-phenyl)-thioureido]-phenyl} -acetamide]",0.05,> 10,,56
"CC(=O)Nc1ccc(NC(=S)Nc2cc(Cl)c(Cl)c(Cl)c2)cc1 [Example 986, N-{4-[3-(3,4,5-Trichloro-phenyl)-thioureido]-phenyl}-acetamide]",0.031,> 10,,5
"O=C(Nc1ccc(NC(=S)Nc2cc(Cl)c(Cl)c(Cl)c2)cc1)c1csnn1 [Example 989, [1,2,3]Thiadiazole-4-carboxylic acid {4-[3-(3,4,5-trichloro-phenyl)-thioureido]-phenyl}-amide]",0.016,> 10,> 10,21
"O=C(Nc1ccc(NC(=S)Nc2ccc(-c3cc[nH]n3)c(Cl)c2)cc1)c1csnn1 [Example 991, [1,2,3]Thiadiazole-4-carboxylic acid (4-{3-[3-chloro-4-(1H-pyrazol-3-yl)-phenyl]-thioureido}-phenyl)-amide]",0.022,> 10,> 10,3
"O=C(Nc1ccc(NC(=S)Nc2cccc(Cl)c2)cc1)c1csnn1 [Example 992, [1,2,3]Thiadiazole-4-carboxylic acid {4-[3-(3-chloro-phenyl)-thioureido]-phenyl}-amide]",0.018,> 10,> 10,29
"O=C(Nc1ccc(NC(=S)Nc2cccc(Cl)c2)cc1)c1ccco1 [Example 993, Furan-2-carboxylic acid {4-[3-(3-chloro-phenyl)-thioureido]-phenyl}-amide]",0.013,> 10,> 10,
"O=C(Nc1ccc(NC(=S)Nc2cccc(Cl)c2)cc1)c1ccccc1F [Example 994, N-{4-[3-(3-Chloro-phenyl)-thioureido]-phenyl}-2-fluoro-benzamide]",0.07,> 10,> 10,
"O=C(Nc1ccc(NC(=S)Nc2ccc(Cl)cc2)cc1)c1ccccc1F [Example 996, N-{4-[3-(4-Chloro-phenyl)-thioureido]-phenyl}-2-fluoro-benzamide]",0.15,10,> 10,
"NC(=O)c1cccc(NC(=S)Nc2ccc(NC(=O)c3ccco3)cc2)c1 [Example 1004, Furan-2-carboxylic acid {4-[3-(3-carbamoyl-phenyl)-thioureido]-phenyl} -amide]",0.5,> 10,> 10,36
"NC(=O)c1cccc(NC(=S)Nc2ccc(NC(=O)c3csnn3)cc2)c1 [Example 1005, [1,2,3]Thiadiazole-4-carboxylic acid {4-[3-(3-carbamoyl-phenyl)-thioureido]-phenyl}-amide]",2,> 10,> 10,16
"O=C(Nc1ccc(NC(=S)Nc2ccccc2Cl)cc1)c1csnn1 [Example 1006, [1,2,3]Thiadiazole-4-carboxylic acid {4-[3-(2-chloro-phenyl)-thioureido]-phenyl}-amide]",0.2,> 10,> 10,13
"O=C(Nc1ccc(NC(=S)Nc2cccc(F)c2)cc1)c1ccco1 [Example 1007, Furan-2-carboxylic acid {4-[3-(3-fluoro-phenyl)-thioureido]-phenyl} -amide]",0.11,> 10,> 10,18
"O=C(Nc1ccc(NC(=S)Nc2cccc([N+](=O)[O-])c2)cc1)c1ccco1 [Example 1008, Furan-2-carboxylic acid {4-[3-(3-nitro-phenyl)-thioureido]-phenyl} -amide]",0.12,> 10,> 10,15
"O=C(Nc1ccc(NC(=S)Nc2cccc([N+](=O)[O-])c2)cc1)c1ccccc1F [Example 1009, 2-Fluoro-N-{4-[3-(3-nitro-phenyl)-thioureido]-phenyl} -benzamide]",0.2,10,,22
"O=C(Nc1ccc(NC(=S)Nc2cccc(OC(F)(F)F)c2)cc1)c1ccccc1F [Example 1011, 2-Fluoro-N-{4-[3-(3-trifluoromethoxy-phenyl)-thioureido]-phenyl} -benzamide]",0.039,> 10,,20
